Results published in patent US20060165683A1, “Methods and compositions for control of bone formation via modulation of sympathetic tone” (priority 2001, published 2006).
“Also recorded” adds a separate entry of the source.

How the values were obtained:
ob/ob mice = test: Long-term isoproterenol treatment of ob/ob mice; type: in vivo, mouse
Method: Wildtype (C57BL/6J) and mutant (C57BL/6J A^y/a, C57BL/6J ob/ob) mice were obtained from the Jackson laboratory and adrenal medullectomized mice from Harlan Tecklad laboratory. Dbh−/− mice were rescued as previously described (Thomas et al., 1998, Neurochem 70:2468-2476). […] Propranolol (Sigma) was added to the drinking water at a concentration of 0.5 g/l. For ICV infusion, a 28-gauge cannula (Brain infusion kit II, Alza) was implanted into the third ventricle as previously described infusing human leptin (Sigma) at 8 ng/hr or MT-II at 125 ng/hr (Phoenix Pharmaceuticals) for 28 days (see, e.g., Ducy et al., 2000, Cell 100: 197-207). The cannula was connected to an osmotic pump (Alza) placed in the dorsal subcutaneous space of the animal. For parabiosis longitudinal incisions were made in the skin and in the peritoneal cavity along one side on each mouse. Edges of the incisions were connected by suture to induce coelioanastomosis. Cross-circulation was quantified by injecting 1 ml/kg 0.25% Evans blue into the tail vein of one mouse of the parabiosed pair. After 30 min. blood was collected from both mice by retroorbital bleeding and the blood exchange rate was calculated according to standard techniques (see, e.g., Harris & Martin, 1984, Am J Physiol 247:R380-386). […] Two weeks after parabiosis a pump delivering leptin ICV in one animal of each pair was implanted. For GTG lesioning, 4-week-old C57BL/6J mice were given a single ip injection of either PBS or GTG (0.5 mg/g). For MSG lesioning, 2 day-old C57BL/6J pups were injected daily subcutaneously with either PBS or MSG (2 mg/g) for 10 days.
Histological analyses were performed on undecalcified sections stained by von Kossa and counterstained by von Gieson (see, e.g., Ducy et al., 2000, Cell 100:197-207). Static and dynamic histomorphometric analyses were performed according to standard protocols (see, e.g., Parfitt et al., 1987, J Bone Miner Res 6:595-610) using the Osteomeasure Analysis System (Osteometrics, Atlanta). Six to 12 animals were analyzed for each group. Statistical significance was assessed by Student's t test.
(§1) Primary osteoblast cultures were established as previously described (see, e.g., Ducy et al., 2000, Cell 100: 197-207) and maintained in αMEM/0.1 mg/ml ascorbic acid supplemented with 10% FBS. SaOS-2 were grown in MEM/10% FBS. For cAMP assay confluent cultures were incubated with serum free medium containing 100 μM IBMX (3-isobutyl-1-methylxanthine, Sigma) for 8 minutes before PBS, PTH(1-34) (Bachem), isoproterenol, norepinephrine, phenylephrine (Sigma) or propranolol were added for 5 min. Intracellular cAMP concentration was measured by immunoassay (R&D Systems). For gene expression analyses, primary osteoblasts were treated for 72 hours with appropriate drugs in 0.1% FBS. Hormone serum levels were quantified using immunoassays kits from Peninsula Laboratories (Insulin) or Alpco Diagnostics (leptin). Deoxypyridinoline cross-links and Creatinine were measured in morning urines using the Quidel kits. a1(I) leptin bioactivity was verified by cotransfection of 293 cells expressing ObRb with a STAT3-responsive-luc reporter construct, pSVβgal plasmid and a1(I) leptin expression vector or mock. Twenty-four hours later luciferase and β-galactosidase activities were measured. Data represents ratios of luciferase/β-galactosidase activities, and values are mean of 6 independent transfection experiments.
To address this point one month-old ob/ob mice were treated for 6 weeks with the β-adrenergic agonist isoproterenol or vehicle.

primary osteoblasts = test: Gene expression and apoptosis in primary osteoblasts; type: cell-based, mouse
Method: as §1
To elucidate the bases of the antiosteogenic effect of isoproterenol in vivo, osteoblast proliferation, gene expression and apoptosis were studied.

wildtype mice = test: Central (ICV) infusion of leptin in wildtype mice; type: in vivo, mouse
Method: (§2) Wildtype (C57BL/6J) and mutant (C57BL/6J A^y/a, C57BL/6J ob/ob) mice were obtained from the Jackson laboratory and adrenal medullectomized mice from Harlan Tecklad laboratory. Dbh−/− mice were rescued as previously described (Thomas et al., 1998, Neurochem 70:2468-2476). Isoproterenol (Sigma) was injected intraperitoneally (ip) once daily for 6 weeks at 30 mg/kg (wt) or 3 mg/kg (ob/ob). Propranolol (Sigma) was added to the drinking water at a concentration of 0.5 g/l. For ICV infusion, a 28-gauge cannula (Brain infusion kit II, Alza) was implanted into the third ventricle as previously described infusing human leptin (Sigma) at 8 ng/hr or MT-II at 125 ng/hr (Phoenix Pharmaceuticals) for 28 days (see, e.g., Ducy et al., 2000, Cell 100: 197-207). The cannula was connected to an osmotic pump (Alza) placed in the dorsal subcutaneous space of the animal. For parabiosis longitudinal incisions were made in the skin and in the peritoneal cavity along one side on each mouse. Edges of the incisions were connected by suture to induce coelioanastomosis. Cross-circulation was quantified by injecting 1 ml/kg 0.25% Evans blue into the tail vein of one mouse of the parabiosed pair. After 30 min. blood was collected from both mice by retroorbital bleeding and the blood exchange rate was calculated according to standard techniques (see, e.g., Harris & Martin, 1984, Am J Physiol 247:R380-386). […]

A^y/a mice = test: Leptin ICV infusion in A^y/a mice; type: in vivo, mouse
Method: Wildtype (C57BL/6J) and mutant (C57BL/6J A^y/a, C57BL/6J ob/ob) mice were obtained from the Jackson laboratory and adrenal medullectomized mice from Harlan Tecklad laboratory. Dbh−/− mice were rescued as previously described (Thomas et al., 1998, Neurochem 70:2468-2476). Isoproterenol (Sigma) was injected intraperitoneally (ip) once daily for 6 weeks at 30 mg/kg (wt) or 3 mg/kg (ob/ob). Propranolol (Sigma) was added to the drinking water at a concentration of 0.5 g/l. For ICV infusion, a 28-gauge cannula (Brain infusion kit II, Alza) was implanted into the third ventricle as previously described infusing human leptin (Sigma) at 8 ng/hr or MT-II at 125 ng/hr (Phoenix Pharmaceuticals) for 28 days (see, e.g., Ducy et al., 2000, Cell 100: 197-207). The cannula was connected to an osmotic pump (Alza) placed in the dorsal subcutaneous space of the animal. For parabiosis longitudinal incisions were made in the skin and in the peritoneal cavity along one side on each mouse. Edges of the incisions were connected by suture to induce coelioanastomosis. Cross-circulation was quantified by injecting 1 ml/kg 0.25% Evans blue into the tail vein of one mouse of the parabiosed pair. After 30 min. blood was collected from both mice by retroorbital bleeding and the blood exchange rate was calculated according to standard techniques (see, e.g., Harris & Martin, 1984, Am J Physiol 247:R380-386). […] Two weeks after parabiosis a pump delivering leptin ICV in one animal of each pair was implanted. For GTG lesioning, 4-week-old C57BL/6J mice were given a single ip injection of either PBS or GTG (0.5 mg/g). For MSG lesioning, 2 day-old C57BL/6J pups were injected daily subcutaneously with either PBS or MSG (2 mg/g) for 10 days.

[1] = test system: propranolol-treated wt mice; test: Leptin ICV infusion in propranolol-treated mice; type: in vivo, mouse; conditions: centrally delivered leptin
Method: as §2

[2] = ob/ob mice, 3 mg/kg/day, 6 weeks
[3] = primary osteoblasts, 72 hours, 0.1% FBS, Northern blot

Molecule	Bone Volume (ob/ob mice; ob/ob + isoproterenol)	expression of uncoupling protein 1 (Ucp1) in brown adipose tissue (ob/ob mice; ob/ob mice)	bone formation rate (ob/ob mice; [2])	bone resorption parameters (ob/ob mice; [2])	number of osteoblasts per bone surface (ob/ob mice; [2])	bone mass and bone formation parameters compared with 3 mg/kg/day (ob/ob mice; ob/ob mice, 10 mg/kg/day)	body weight (ob/ob mice; ob/ob mice, 3 and 10 mg/kg/day)	bone mass in the vertebrae and long bones (ob/ob mice; one month-old ob/ob mice, 3 mg/kg/day ip, 6 weeks)	apoptosis: Caspase 3 expression and Annexin-V staining levels (primary osteoblasts; isoproterenol-treated versus control osteoblasts)	expression of Cbfa1 (primary osteoblasts; [3])	expression of a1(I) collagen (primary osteoblasts; [3])	bone mass / bone volume and bone formation parameters (wildtype mice)	body weight (A^y/a mice; ICV infusion)	bone formation rate (A^y/a mice; long-term ICV infusion)	bone mass / bone volume (A^y/a mice; long-term ICV infusion)	bone mass [1]	fat pads [1]
CC(C)NCC(O)c1ccc(O)c(O)c1 (centres unmarked) [isoproterenol]	Low	increased	marked decrease	unaffected	marked decrease	Identical results	without affecting	massive bone loss	did not observe any change	decreased	decreased	–	–	–	–	–	–
leptin: polypeptide hormone, product of the ob gene; human leptin (Sigma) infused ICV (protein) VPIQKVQDDTKTLIKTIVTRINDISHTQSVSAKQRVTGLDFIPGLHPILSLSKMDQTLAVYQQVLTSLPSQNVLQIANDLENLRDLLHLLAFSKSCSLPQTSGLQKPESLDGVLEASLYSTEVVALSRLQGSLQDILQQLDVSPEC	–	–	–	–	–	–	–	–	–	–	–	decreased	without affecting	decrease	significant decrease; also recorded: decreased	did not affect	disappearance
